Laboratory results from US20250100962A1 (CITY OF HOPE, priority 2023, published 2025).

How the values were obtained:
[1] = tested on: C3H10T1/2 cells containing Per2::dLuc luciferase reporter; assay: Bioluminescence monitoring of Per2::dLuc reporter in C3H10T1/2 cells; type: cell-based; details: 10T1/2 cells
Protocol: Generation of stable adipogenic progenitor cell lines containing Per2::dLuc. 3T3-L1 preadipocytes and the C3H10T1/2 mesenchymal stem cells obtained from ATCC were used for Per2:: dLuc lentiviral transduction and stable clone selection using puromycin, as described previously (Guo et al., 2012). Briefly, cells were transfected with lentiviral packaging plasmids (pSPAX.2 and pMD2.G) and lentivirus vectors Per2::dLuc using PEI Max (Polysciences). At 48 hours post-transfection, lentiviruses were collected. 3T3-L1 and C3H10T1/2 […] cells were infected using collected lentiviral media supplemented with polybrene. 24 hours following lentiviral infection, stable cell lines were selected in the presence of 2 μg/ml puromycin.
Continuous Bioluminescence monitoring of Per2:: dLuc luciferase reporter. 3T3-L1 and C3H10T1/2 cells containing a Per2::dLuc luciferase reporter were generated as described previously (Xiong et al., 2023). […] Raw and subtracted results of real-time bioluminescence recording data for 6 days were exported, and data was calculated as luminescence counts per second, as previously described (Xiong, Li, Nam et al., 2022). […] Briefly, raw data following the first cycle from day 2 to […] were fitted to a linear baseline, and the baseline-subtracted data (polynomial number=1) were fitted to a sine wave, from which period length and goodness of fit and damping constant were determined.

mdx primary myoblasts = assay: EdU proliferation in mdx primary myoblasts; type: cell-based, mouse; details: 0.5-1 μM; 6 hours
From the text: FIGS. 16A-16B. Pro-myogenic effect of chlorhexidine on dystrophin-deficient mdx primary myoblasts. FIG. 16A: We used primary myoblasts isolated from male mdx mice as a cellular model to test the effect of CHX on myogenesis. […] Both of the pro-myogenic and proliferative effects of CHX observed in mdx primary myoblasts were consistent with prior findings from C2C12 myoblasts. Additional validations of these effects are on-going using myoblasts derived from human DMD patients.

In the case of [H]/N=C(\N/C(=N/[H])NCCCCCCNC(=N)NC(=N)Nc1ccc(Cl)cc1)Nc1ccc(Cl)cc1 [CHX, chlorhexidine], the clock period length [1] is reported as “dose-dependent clock period shortening, with this effect significant only for 1 and 2 μM”, the clock cycling amplitude ([1]; 1 and 2 μM) is reported as “augment clock cycling amplitude” and the “increase of rate of proliferation (EdU)” value (mdx primary myoblasts) is reported as roughly 22%.
